Data taken from patent publication US5633230A, “Treatment of cytomegalovirus infection” (priority 1994, dated 1997).
In brackets after ≈: the same amount, converted by molar mass. Several values for one entry are separate records, joined by “and”; a condition that tells them apart may be missing. Equal values may be shown once.

Tests used:
[1] = physchem; conditions: water
[2] = mouse, in vivo
Procedure: Ten mice were injected intravenously in the tail vein with 0.25 mL of a solution of 26 μg of ^14 C-labelled compound in 10 mL PBS, and ten mice were given the same dose by subcutaneous injection in the abdomen. One mouse from each group was sacrificed at the time points noted in FIGS. 1 and 2, and the noted organs were weighed and digested to homogeneity for scintillation counting. Counts were measured and used to calculate the amount and concentration of drug in each organ.

[3] = tested on: CMV strain AD-169; assay: CPE assay, CMV AD-169 in HFF cells; assay type: cell-based; conditions: CMV AD-169, HFF (human foreskin fibroblast), without 24 h drug pretreatment
Text: *CPE assay, all others are plaque reduction assays.

[4] = tested on: CMV strain Davis; conditions: MRC-5, plaque reduction, 24 h drug pretreatment
Procedure: The following procedures were then used to determine inhibitory effects of AV-9 on the replication of CMV. First, confluent monolayers of the human diploid cell line, MRC-5 (ATCC# CCL 171) in 24 well cell culture plates were pretreated with specified concentrations (20 μM, 10 μM, 5 μM, 2.5 μM, 1.0 μM, 0.5 μM and 0.0 μM) of AV-9 for 24 hours. This was accomplished by diluting the stock peptide solution in growth medium (10% fetal bovine serum and 10 μg/ml gentamicin in Dulbecco's MEM (DMEM)) used to overlay the monolayers.
(§1) After pretreatment with AV-9, the monolayers were overlaid with 0.1 ml log10 dilutions of virus (CMV strain AD-169) ranging from 10^-1 to 10^-6. Virus was then allowed to adsorb for 1 hour at 37° C. The virus inoculum was removed and the monolayers were overlayed with DMEM containing 2% FBS, 10 ug/ml gentamicin and a specified concentration of AV-9. Virus was next allowed to replicate for 7 to 10 days until the plaques were judged to be well developed, and then the monolayers were fixed and stained with a solution of 1% crystal violet in 1% formaldehyde,70% ethanol. Finally, plaques (each representing a single viable virion) were counted and checked microscopically.
(§2) In a like manner, plaque reduction assays were also performed against other CMV strains and another CMV host, with comparison against ganciclovir (GCV) and foscarnet (FCV).

[5] = tested on: CMV strain AD-169; assay: plaque reduction assay, CMV AD-169 in MRC-5 cells; assay type: cell-based, human CMV; conditions: CMV AD-169, MRC-5 (human embryonic lung), 24 h drug pretreatment
Procedure: (§3) The following procedures were then used to determine inhibitory effects of AV-9 on the replication of CMV. […] This was accomplished by diluting the stock peptide solution in growth medium (10% fetal bovine serum and 10 μg/ml gentamicin in Dulbecco's MEM (DMEM)) used to overlay the monolayers.
as §1, §2

[6] = tested on: ganciclovir-resistant CMV strains 759^r D100 and GDG^r K17 and foscarnet-resistant CMV strains PFA^r D100 and PFA^r B300; conditions: range over strains 759^r D100, GDG^r K17, PFA^r D100, PFA^r B300; MRC-5; drug pre- and post-infection
Procedure: This stock solution was subsequently diluted in cell culture medium to obtain the test concentrations used in the study. Ganciclovir (GCV) was dissolved in sterile, deionized water, and the drug concentration measured spectrophotometrically (7.8mM). Foscarnet (phosphonoformic acid, PFA) was dissolved in sterile, deionized water to a final concentration of 100 mM. Aliquots of the stock solutions were stored at -70° C.
Drug-resistant human CMV strains 759^r D100, GDG^r K17, PFA^r D100 and PFA^r B300 were obtained from Dr. Donald M. Coen, Harvard Medical School, Boston, Mass.
The drug stock solutions were diluted with fresh culture medium to obtain the desired test concentrations in the range 0.5-2500 μM.
MRC-5 cells (4-5×10^5 per well) were grown for 24 hours at 37° C. in 5% CO2 atmosphere in D-MEM/F-12FBS medium containing varying concentrations of drug. At the end of the pre-treatment period, the cells were infected with a suspension containing 50 plaque forming units of CMV (MOI=0.0001). The virus was allowed to absorb for 60 minutes at 37° C. in the absence of drug, at which time the virus innoculum was washed away, and the cells fed with fresh growth medium containing drug. […] Vital plaques were counted under a microscope after removing the culture medium from the wells, staining the cells with 1.1% Crystal Violet solution, and washing twice with tap water. […]

[7] = tested on: HCMV strain AD-169; assay: drug combination plaque reduction study (MacSynergy); assay type: cell-based; conditions: human CMV-infected MRC-5 cells, plaque counts
Procedure: For use in this study, HCMV strain AD-169 was obtained from the American Type Culture Collection, Rockville, Md. and ganciclovirresistant clinical isolate of HCMV, strain D16, was obtained from Kenneth D. Thompson, Loyola University Medical Center, Maywood, Ill. Host MRC-5 cells were cultured in a medium of Basal Medium Eagle (BME) (GIBCO), fetal bovine serum (FBS) (Hyclone Laboratories), 0.035% NaHCO3 and without antibiotics.
Test medium for dilution of virus and for preparation and dilution of compounds was Dulbecco's modified Eagle medium (DMEM), 2% FBS, 0.1% NaHCO3, 50 μg gentamicin/ml.
For drug combination experiments, each of AV-9, DHPG, foscarnet, and […] was prepared in test medium at double the highest concentration used. Each of these compound preparations was then diluted by serial 2-fold dilutions in test medium (except for AZT, which was diluted by serial half-log dilutions).
Growth medium was decanted from established monolayers of MRC-5 cells in 24-well tissue culture plates. Compound dilutions were placed in designated wells of the plates at 0.8 ml/well, with test medium only placed in virus control or cell control wells, and the plates were placed at 37° C. Four wells were used for each different compound dilution. After 24 hr of pre-treatment incubation, the medium was aspirated from each well of the plates. One ml of virus, diluted in test medium was placed in each well except those to be used for cell controls or those to be used for toxicity controls. One ml of sterile test medium was placed in each of these cell or toxicity control wells. The plates were centrifuged at 2200 rpm for 30 minutes at room temperature to allow the virus to adsorb. Medium was aspirated from each well of the plates. The proper individual compound concentrations or combinations were placed in test wells (0.8 ml/well, 4 wells/dilution) or in toxicity control wells. Test medium without compound was added (0.8 ml/well) to each cell control and virus control well. All plates were incubated at 37° C. in a moist atmosphere of 5% CO2, 95% air. […] After 15 minutes, the stain was removed, cells were rinsed in tap water until the water was clear, and the plates were inverted and dried at room temperature. Plaques were counted by use of a dissecting microscope. The plaque counts were entered in the MacSynergy™ program of Prichard and Shipman and 3-D plots were made.

[8] = tested on: CMV strain AD-169; assay: plaque reduction assay, CMV AD-169 in HFF cells; assay type: cell-based, human CMV; conditions: CMV AD-169, HFF, without 24 h drug pretreatment
Procedure: as §3
as §1, with “After pretreatment with AV-9, the monolayers were overlaid with 0.1 ml log10 dilutions of virus (CMV strain AD-169) ranging from 10^-1 to 10^-6.” left out
as §2

For `CC(=O)N[C@H](CCCNC(=N)N)C(=O)N[C@H](CCCNC(=N)N)C(=O)N[C@H](CCCNC(=N)N)C(=O)N[C@H](CCCNC(=N)N)C(=O)N[C@H](CCCNC(=N)N)C(=O)N[C@H](CCCNC(=N)N)C(=O)N[C@H](CCCNC(=N)N)C(=O)N[C@H](CCCNC(=N)N)C(=O)N[C@H](CCCNC(=N)N)C(N)=O` [AV-9, acetyl-[D-Arg]9 -NH2], the solubility [1] was roughly 1000 mg/mL (≈ 683 mM), the “speed of distribution to tissues” value [2] was “rapid distribution of drug to tissues” and the “tissue distribution, organs with highest levels” value [2] was “highest and most prolonged levels are attained in the liver, followed by the kidneys and spleen”. For the same compound, the IC50 [3] was 5800 nM, the IC50 [4] was 2300 nM and the IC50 [5] was 2600 nM and 4800 nM and 2700 nM. The IC50 [6] was 1300 to 2100 nM, the “antagonism in combination with phosphonoformic acid (foscarnet)” value [7] was “insignificant amount of antagonism” and the “synergy in combination with AZT” value [7] was “No synergy”. For the same compound, the “synergy in combination with DHPG” value [7] was “intense synergy”, the “synergy in combination with phosphonoformic acid (foscarnet)” value [7] was “moderate amount of synergy” and the IC50 [8] was 12000 nM.
